# Target: T1, OR7A17 (Homo sapiens, UniProt O14581)
# T1 sequence (O14581 1-309): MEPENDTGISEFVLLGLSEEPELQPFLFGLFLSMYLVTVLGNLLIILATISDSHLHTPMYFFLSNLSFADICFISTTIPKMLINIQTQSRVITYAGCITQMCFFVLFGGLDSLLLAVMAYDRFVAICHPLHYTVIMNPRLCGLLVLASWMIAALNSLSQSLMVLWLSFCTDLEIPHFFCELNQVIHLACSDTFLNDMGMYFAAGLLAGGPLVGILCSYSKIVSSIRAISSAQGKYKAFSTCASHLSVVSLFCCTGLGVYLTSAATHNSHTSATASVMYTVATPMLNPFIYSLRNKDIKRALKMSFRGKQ
# Experiment: odorant receptor activation (Example 3 in U.S. 62/911,096)
# Format: cell-based
# Conditions: associated with blonde woody tonality
# Source text: Non-limiting examples of an olfactory tonality include earthy, coconut, celery, hay etc. (see Example 1 in U.S. 62/911,096). For example, OR11A1 agonists all share a common earthy tonality even as they elicit an overall set of distinct tonalities (see Example 2 in U.S. 62/911,096). A volatile molecule may have greater than one tonality. For example, beta ionone has violet and blonde woody tonalities arising from the activation of OR5A1 and OR7A17, respectively (see Example 3 in U.S. 62/911,096).
# The first relationship may be obtained by putting into contact a sample of volatile molecules with isolated ORs and by monitoring the activity of each said OR. The result of such an experiment may be stored inside a database cross referencing volatile molecule digital identifiers, representative of real volatile molecules, and the impact of said volatile molecule on the ORs monitored during the experiment.
# Indicators for monitoring the activity of olfactory receptors include, for example, a fluorescent calcium indicator dye, a calcium indicator protein (e.g. GCaMP, a genetically encoded calcium indicator), a fluorescent cAMP indicator, a cell mobilization assay, a cellular dynamic mass redistribution assay, a label-free cell based assay, a cAMP response element (CRE) mediated reporter protein, a biochemical cAMP HTRF assay, a beta-arrestin assay, or an electrophysiological recording. […]
compound,measurement,value
CC(=O)/C=C/C1=C(C)CCCC1(C)C [beta ionone],activation of OR7A17,activation

# Source: patent US20220375548A1, “FRAGRANCE COMPOSITION TONALITY DETERMINATION METHOD, FRAGRANCE COMPOSITION DETERMINATION METHOD AND CORRESPONDING SYSTEMS” (FIRMENICH SA, priority 2019, published 2022)
